This experiment deals with HCV pseudoparticles, genotype 1a (H77C) E1 and E2 envelope. Kind of experiment: microbe, parasite or virus in culture. The format is cell-based, HCV genotype 1a (H77C isolate). The following applies: Hepatitis C virus, Huh-7, 48 h, HCV pseudoparticles 1a (H77C), Huh7 cells, luciferase 2 days after infection.
The mark [1] stands for this setting: read-out: EC50 (nM) 1a (H77C), Table 1a, class.
The mark [2] stands for this setting: read-out: EC50 (nM) 1a (H77C), Table 1a.
The mark [3] stands for this setting: read-out: EC50 (nM) 1a (H77C), Table 1b, class.
[4] abbreviates: read-out: EC50 (nM) 1a (H77C), Table 1b.

Like-named read-outs stand apart in the source and are kept apart here.

Usually EC50 stands for the concentration needed to bring the measured effect to its halfway point. As to `O=C1NCCNCCNc2nc(nc(OCC(F)(F)F)n2)Nc2ccc1cc2` [Example 0001], the EC50 under setting [1] was in the range of 1000 to 5000 nM and the EC50 under setting [2] came out at 4200 nM.
On to `O=C1NCCCCCCCCNc2nc(nc(OCC(F)(F)F)n2)Nc2ccc1cc2` [Example 0002], for which the EC50 under setting [1] lay within 0.1 to 100 nM.
Consider `O=C1NCCCCCCCCCCNc2nc(nc(OCC(F)(F)F)n2)Nc2ccc1cc2` [Example 0003], for which the EC50 is 100 to 1000 nM under setting [1] and 101 nM under setting [2].
The corresponding values for `O=C1NCCCOCCCCOCCCNc2nc(nc(OCC(F)(F)F)n2)Nc2ccc1cc2` [Example 0004] are 0.1 to 100 nM and 48.4 nM.
As for `CC(=O)N1CCNC(=O)c2ccc(cc2)Nc2nc(nc(OCC(F)(F)F)n2)NCC1` [Example 0005], under setting [1], the EC50 fell in the range of 1000 to 5000 nM.
For the compound `O=C1NCCCCNC(=O)C2(CC2)Nc2nc(nc(OCC(F)(F)F)n2)Nc2ccc1cc2` [Example 0006], under setting [1], the EC50 lay within 1000 to 5000 nM.
`O=C1N[C@H]2CNC[C@@H]2C(=O)NCCCCCCOc2ccc(cc2)CNc2nc(nc(OCC(F)(F)F)n2)Nc2ccc1cc2` [Example 0007]: the EC50 was 0.1 to 100 nM under setting [1] and 8.31 nM under setting [2].
On to `CN(C)C(N1C[C@@H]2NC(=O)c3ccc(cc3)Nc3nc(nc(OCC(F)(F)F)n3)NCc3ccc(cc3)OCCCCCCNC(=O)[C@H]2C1)=[N+](C)C` [Example 0008], for which the EC50 under setting [1] was in the range of 0.1 to 100 nM.
For `CC(C)(C)OC(=O)N1CCN(CC2CNC(=O)c3ccc(cc3)Nc3nc(nc(OCC(F)(F)F)n3)NCc3ccc(cc3)OC/C=C/CO2)CC1` (stereo not shown) [Example 0009], the EC50 under setting [1] was in the range of 100 to 1000 nM.
`O=C1NCC(CN2CCNCC2)OC/C=C/COc2ccc(cc2)CNc2nc(nc(OCC(F)(F)F)n2)Nc2ccc1cc2` (stereo not shown) [Example 0010]: the EC50 under setting [1] is 1000 to 5000 nM.
`O=C1NC(C2CCCNC2)C(=O)NCCCCCCOc2ccc(cc2)CNc2nc(nc(OCC(F)(F)F)n2)Nc2ccc1cc2` (stereo not shown) [Example 0011]: the EC50 runs as follows: under setting [1], 0.1 to 100 nM; under setting [2], 62.8 nM.
As to `O=C1NCCCCCCCCCCCCNC(=O)c2ccc(cc2)Nc2nc(nc(OCC(F)(F)F)n2)NCc2ccc1cc2` [Example 0034], the EC50 under setting [1] is 1000 to 5000 nM.
`O=C1NCCCOCCOCCOCCCNC(=O)c2ccc(cc2)Nc2nc(nc(OCC(F)(F)F)n2)NCc2ccc1cc2` [Example 0036]: the 50% effective concentration (EC50) under setting [1] was in the range of 1000 to 5000 nM.
`O=C1NCCCCCCCCCNC(=O)c2ccc(cc2)Nc2nc(nc(OCC(F)(F)F)n2)NCc2ccc1cc2` [Example 0037]: under setting [1], the EC50 was in the range of 100 to 1000 nM.
On to `O=C1NCCCCCCCCCCCNC(=O)c2ccc(cc2)Nc2nc(nc(OCC(F)(F)F)n2)NCc2ccc1cc2` [Example 0038], for which the EC50 runs as follows: under setting [1], 100 to 1000 nM; under setting [2], 840 nM.
In the case of `O=C1CCCCCCCCC(=O)NCc2ccc(cc2)Nc2nc(nc(OCC(F)(F)F)n2)NCc2ccc(cc2)CN1` [Example 0064], the EC50 is 100 to 1000 nM under setting [1] and 407 nM under setting [2].
With `O=C1NS(=O)(=O)C/C=C/CCOc2ccc(cc2)CNc2nc(nc(OCC(F)(F)F)n2)Nc2ccc1cc2` [Example 3004], the concentration giving a half-maximal response (EC50) is, setting by setting: under setting [1], 1000 to 5000 nM; under setting [2], 2940 nM.
`O=C1NS(=O)(=O)C/C=C/CCCCOc2ccc(cc2)CNc2nc(nc(OCC(F)(F)F)n2)Nc2ccc1cc2` [Example 3006]: the EC50 under setting [1] fell in the range of 1000 to 5000 nM.
The same measure, in the same setting: the value for `O=C1CCNC(=O)c2ccc(cc2)Nc2nc(nc(OCC(F)(F)F)n2)NCc2ccc(cc2)OC/C=C/CS(=O)(=O)N1` [Example 3008] was 100 to 1000 nM; that for `O=C1CCNC(=O)c2ccc(cc2)Nc2nc(nc(OCC(F)(F)F)n2)NCc2ccc(cc2)OC/C=C\CS(=O)(=O)N1` [Example 3009] was 100 to 1000 nM.
As to `O=C1NCCCNCCCOc2ccc(cc2)C2(CC2)Nc2nc(nc(OCC(F)(F)F)n2)Nc2ccc1cc2` [Example 5001], the EC50 under setting [3] was 0.1 to 100 nM.
The same measure, in the same setting: the value for `CCOC(=O)N1CCCNC(=O)c2ccc(cc2)Nc2nc(nc(OCC(F)(F)F)n2)NC2(CC2)c2ccc(cc2)OCCC1` [Example 5002] was 0.1 to 100 nM.
The same measure, in the same setting: the value for `CCC(=O)N1CCCCNC(=O)c2ccc(cc2)Nc2nc(nc(OCC(F)(F)F)n2)NC2(CC2)c2ccc(cc2)OCCC1` [Example 5005] was 0.1 to 100 nM; that for `CC(C)(C)NC(=O)N1CCCOc2ccc(cc2)CNc2nc(nc(OCC(F)(F)F)n2)Nc2ccc(cc2)C(=O)NCC1` [Example 6001] was 0.1 to 100 nM; that for `CC(C)NC(=O)N1CCCOc2ccc(cc2)CNc2nc(nc(OCC(F)(F)F)n2)Nc2ccc(cc2)C(=O)NCC1` [Example 6003] was 0.1 to 100 nM.
As for `CC(C)OC(=O)N1CCCOc2ccc(cc2)CNc2nc(nc(OCC(F)(F)F)n2)Nc2ccc(cc2)C(=O)NCC1` [Example 6004], the EC50 under setting [3] was in the range of 0.1 to 100 nM.
Consider `CCOC(=O)N1CCCOc2ccc(cc2)CNc2nc(nc(OCC(F)(F)F)n2)Nc2ccc(cc2)C(=O)NCC1` [Example 6005], for which the EC50 under setting [3] fell in the range of 0.1 to 100 nM.
On to `CCC(=O)N1CCCOc2ccc(cc2)CNc2nc(nc(OCC(F)(F)F)n2)Nc2ccc(cc2)C(=O)NCC1` [Example 6007], for which the EC50 under setting [3] was in the range of 0.1 to 100 nM.
Turning to `CC(C)C(=O)N1CCCOc2ccc(cc2)CNc2nc(nc(OCC(F)(F)F)n2)Nc2ccc(cc2)C(=O)NCC1` [Example 6008], under setting [3], the EC50 lay within 0.1 to 100 nM.
For `CC(C)(C)NC(=O)N1CCCNC(=O)c2ccc(cc2)Nc2nc(nc(OCC(F)(F)F)n2)NCc2ccc(cc2)OCCC1` [Example 6013], the EC50 under setting [3] was in the range of 0.1 to 100 nM.
With `CCOC(=O)N1CCCOc2ccc(cc2)CNc2nc(nc(OCC(F)(F)F)n2)Nc2ccc(cc2)C(=O)NCC(C)(C)C1` [Example 6033], the concentration for a half-maximal effect (EC50) under setting [3] was 0.1 to 100 nM.
As for `CCCN1CCCOc2ccc(cc2)CNc2nc(nc(OCC(F)(F)F)n2)Nc2ccc(cc2)C(=O)NCC(C)(C)C1` [Example 6039], the EC50 under setting [3] fell in the range of 0.1 to 100 nM.
Take `O=C1NCCCCNCCCNc2nc(nc(OCC(F)(F)F)n2)Nc2ccc1cc2` [Example 7001]: the EC50 under setting [3] was 1000 to 5000 nM.
Turning to `O=C1NCCCCCNCCNc2nc(nc(OCC(F)(F)F)n2)Nc2ccc1cc2` [Example 8002], the EC50 was 1000 to 5000 nM under setting [3] and above 50000 nM under setting [4].
On the same counts, the results for `O=C1NCCCNCCCCCCCCNc2nc(nc(OCC(F)(F)F)n2)Nc2ccc1cc2` [Example 9001] are 100 to 1000 nM and 243 nM.
Regarding `CC(C)(C)OC(=O)N1CCCCCCCCNc2nc(nc(OCC(F)(F)F)n2)Nc2ccc(cc2)C(=O)NCCC1` [Example 9002], the EC50 under setting [3] fell in the range of 0.1 to 100 nM.

The values above are taken from patent US8445490B2, “Compounds for the treatment of hepatitis C” (priority 2009, dated 2013).
